Measurements as given in the SangsterLogP compilation.

Tests used:
[1] = method code SF-AS, from DOI: 10.1007/s11095-005-4582-3, PMID: 15948031

## CC(=O)c1ssc(=O)c1C
other
  logP: 1.58

## CC(=O)c1cc(=S)ss1
other
  logP: 2.18

## O=Cc1cc(=S)ss1
other
  logP: 2.53

## COc1c(C=O)ssc1=S
[1]
  logP: 2.56

## CCc1c(C=O)ssc1=S
[1]
  logP: 3.15

## O=Cc1cc(=O)ss1
other
  logP: 1.81

## O=Cc1ssc(=S)c1Cl
[1]
  logP: 2.95

## Cc1c(C=O)ssc1=S
other
  logP: 2.87

## CCc1c(C(C)=O)ssc1=S
other
  logP: 3.21

## O=Cc1ssc(=O)c1Cl
[1]
  logP: 2.16

## COc1c(C=O)ssc1=O
other
  logP: 1.83

## Cc1c(C=O)ssc1=O
[1]
  logP: 1.62

## CC(=O)c1cc(=O)ss1
other
  logP: 1.14

## O=Cc1ssc(=S)c1-c1ccccc1
[1]
  logP: 3.43

## CC(=O)c1ssc(=S)c1-c1ccccc1
other
  logP: 3.31

## CCc1c(C(C)=O)ssc1=O
other
  logP: 2.12

## CC(=O)c1ssc(=O)c1-c1ccccc1
other
  logP: 2.5

## CCc1c(C=O)ssc1=O
[1]
  logP: 2.58

## O=Cc1ssc(=O)c1-c1ccccc1
other
  logP: 2.94
